Measured values taken from the NIST ThermoML archive (doi:10.1016/j.jct.2015.05.024).
± gives the expanded uncertainty stated by the source.

Assay: xn = mol fraction of the nth substance listed
Conditions: 100 kPa, Liquid, Vibrating tube method

OCCOCCOCCO [triethylene glycol] + O
mass density [kg/m3]
Conditions	323.15 K	328.15 K	333.15 K
x1 = 0.0107	–	996.693 ± 0.22	994.065 ± 0.22
x1 = 0.02047	–	1005.64 ± 0.2	1002.89 ± 0.19
x1 = 0.03972	–	1020.67 ± 0.19	1017.67 ± 0.18
x1 = 0.04979	–	1027.35 ± 0.16	1024.24 ± 0.16
x1 = 0.06996	–	1038.74 ± 0.15	1035.42 ± 0.15
x1 = 0.09424	–	1049.58 ± 0.14	1046.06 ± 0.14
x1 = 0.1481	–	1065.82 ± 0.13	1062.02 ± 0.13
x1 = 0.2006	–	1075.2 ± 0.13	1071.28 ± 0.13
x1 = 0.2502	–	1080.82 ± 0.14	1076.84 ± 0.14
x1 = 0.2988	1088.45 ± 0.14	1084.52 ± 0.14	1080.53 ± 0.14
x1 = 0.3492	1091.15 ± 0.15	1087.21 ± 0.15	1083.23 ± 0.15
x1 = 0.3925	1092.88 ± 0.15	1088.93 ± 0.15	1084.95 ± 0.15
x1 = 0.4502	1094.61 ± 0.16	1090.66 ± 0.16	1086.7 ± 0.16
x1 = 0.4877	1095.48 ± 0.17	1091.55 ± 0.17	1087.58 ± 0.17
x1 = 0.5004	1095.75 ± 0.17	1091.81 ± 0.17	1087.85 ± 0.17
x1 = 0.5739	1097.01 ± 0.19	1093.08 ± 0.18	1089.13 ± 0.18
x1 = 0.58	1097.09 ± 0.19	1093.16 ± 0.19	1089.21 ± 0.18
x1 = 0.6465	1097.92 ± 0.2	1093.99 ± 0.2	1090.05 ± 0.2
x1 = 0.651	1097.96 ± 0.2	1094.04 ± 0.2	1090.1 ± 0.2
x1 = 0.7008	1098.44 ± 0.21	1094.53 ± 0.21	1090.59 ± 0.21
x1 = 0.7471	1098.82 ± 0.23	1094.91 ± 0.22	1090.97 ± 0.22
x1 = 0.7677	1098.97 ± 0.23	1095.06 ± 0.23	1091.13 ± 0.23
x1 = 0.82	1099.31 ± 0.24	1095.4 ± 0.24	1091.47 ± 0.24
x1 = 0.8623	1099.56 ± 0.26	1095.64 ± 0.26	1091.71 ± 0.25
x1 = 0.8792	1099.64 ± 0.27	1095.73 ± 0.26	1091.81 ± 0.26
x1 = 0.8975	1099.74 ± 0.27	1095.83 ± 0.27	1091.9 ± 0.27
x1 = 0.9203	1099.85 ± 0.28	1095.94 ± 0.28	1092.01 ± 0.27
x1 = 0.9514	1100 ± 0.29	1096.09 ± 0.29	1092.16 ± 0.28
x1 = 0.9692	1100.08 ± 0.3	1096.17 ± 0.29	1092.24 ± 0.29
x1 = 1	1100.22 ± 0.31	1096.3 ± 0.31	1092.38 ± 0.3
